The values that follow come from publication PMC10700596 (Nature Communications, 2023).

In experiment [1] the target is T1, EP4R (Homo sapiens, UniProt P35408).
T1 construct: Tango fusion cassette (only 'tango' is printed); expressed in transfected cells; host or cells: HTLA cells (tTA-dependent luciferase reporter, β-arrestin2-TEV fusion)
The experiment in a line: biochemical. Type of experiment: binding. Conditions: […], read-out: % displacement of 3HPGE2 at 10 µM, 10 µM compound vs 10 nM 3H-PGE2.

Experiment [2] deals with T1, EP4R. The experiment in a line: PRESTO-Tango β-arrestin2 recruitment assay. The format is cell-based. Conditions: for Ki: PRESTO-Tango Ki* (nM). (Arrestin recruitment assays detect the binding of arrestin to an activated receptor.)
The mark [3] stands for this setting: PRESTO-Tango -logIC50, antagonist mode, EC80 of PGE2.
The mark [4] stands for this setting: PRESTO-Tango IC50 (nM), antagonist mode, EC80 of PGE2.
[5] abbreviates: calculated using the Cheng Prusoff equation.

T1 sequence (P35408 whole entry, the tested form may be a part): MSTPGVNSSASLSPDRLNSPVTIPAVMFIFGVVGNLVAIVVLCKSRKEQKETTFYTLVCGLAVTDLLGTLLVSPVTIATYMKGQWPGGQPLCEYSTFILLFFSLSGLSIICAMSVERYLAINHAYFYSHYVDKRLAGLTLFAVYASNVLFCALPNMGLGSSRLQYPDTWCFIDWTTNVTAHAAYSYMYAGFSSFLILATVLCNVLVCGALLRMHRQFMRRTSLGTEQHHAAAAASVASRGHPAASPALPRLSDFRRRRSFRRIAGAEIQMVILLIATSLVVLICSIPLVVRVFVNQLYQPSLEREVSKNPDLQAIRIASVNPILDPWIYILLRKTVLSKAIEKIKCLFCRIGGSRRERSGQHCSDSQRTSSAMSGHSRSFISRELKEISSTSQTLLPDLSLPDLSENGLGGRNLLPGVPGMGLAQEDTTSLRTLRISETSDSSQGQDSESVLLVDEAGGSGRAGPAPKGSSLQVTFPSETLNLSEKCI

As to `O=C(O)C1(n2cc(Cc3ccc(F)cc3F)cn2)CCC(c2ccccc2)CC1` (centres unmarked) [Compound 1, OC(=O)C1(CCC(CC1)C=2C=CC=CC2)N3C=C(CC=4C=CC(F)=CC4F)C=N3], the inhibition at 10 µM on EP4R [1] was -28.7%.
On the same count and under the same terms, in the case of `CCc1ncc(CN(CC(=O)O)C(=O)OCc2cccnc2)s1` [Compound 2, CCC1=NC=C(CN(CC(=O)O)C(=O)OCC=2C=CC=NC2)S1] it was -23.1%; in that of `CC1CC(C(=O)O)CN(C(=O)C2(c3cccc(C(F)(F)F)c3)CC2)C1` (centres unmarked) [Compound 3, CC1CC(CN(C1)C(=O)C2(CC2)C=3C=CC=C(C3)C(F)(F)F)C(=O)O], -22.5%.
On the same count and under the same terms, the figure for `O=C(NC1CC(C(=O)O)C1)N[C@@H]1CCC[C@@H]1n1cccn1` (some centres unmarked) [Compound 4, OC(=O)C1CC(C1)NC(=O)N[C@@H]2CCC[C@@H]2N3C=CC=N3] is -21.9%; for `O=C(O)CCc1cccc(NC(=O)c2c(C(F)(F)F)nc3n2CCCC3)c1` [Compound 5, OC(=O)CCC=1C=CC=C(NC(=O)C2=C(N=C3CCCCN23)C(F)(F)F)C1] it is -19%.
For the compound `NC(=O)c1cc(C(=O)Nc2ccc(CC(=O)O)cc2)nn1-c1ccccc1` [Compound 6, NC(=O)C1=CC(=NN1C=2C=CC=CC2)C(=O)NC=3C=CC(CC(=O)O)=CC3], the inhibition at 10 µM on EP4R [1] is -18.8%.
On the same count and under the same terms, in the case of `CC1(COC(=O)c2ccc(NS(C)(=O)=O)nc2)CC1(F)Cl` (centres unmarked) [Compound 7, CC1(COC(=O)C=2C=CC(NS(=O)(=O)C)=NC2)CC1(F)Cl] it was -18.4%.
Still for that read-out and setting: the figure for `CN(c1nc2cccc(F)c2s1)[C@H]1C[C@@H](C(=O)O)C1` [Compound 8, CN([C@H]1C[C@H](C1)C(=O)O)C2=NC=3C=CC=C(F)C3S2] is -18.4%; for `CC(CN(C)c1nc(C(F)(F)F)cs1)C(=O)O` (centres unmarked) [Compound 9, CC(CN(C)C1=NC(=CS1)C(F)(F)F)C(=O)O] it is -18.1%; for `COc1ccc(Cl)cc1C(Nc1ncc(C(=O)O)s1)c1ccccc1` (centres unmarked) [Compound 10, COC=1C=CC(Cl)=CC1C(NC2=NC=C(S2)C(=O)O)C=3C=CC=CC3] it is -17.8%.
The same measure, in the same setting: in the case of `Cc1ccc(-n2c(SCc3nnn[nH]3)nc3ccccc3c2=O)cc1` [Compound 11, CC=1C=CC(=CC1)N2C(SCC3=NN=NN3)=NC=4C=CC=CC4C2=O] it was -17.6%; in that of `O=C(O)c1c[nH]c2c(Cl)cc(-c3ccc4ccccc4c3F)cc2c1=O` [Compound 12, OC(=O)C1=CNC=2C(Cl)=CC(=CC2C1=O)C=3C=CC=4C=CC=CC4C3F], -17.1%; in that of `O=C(NCc1cc(Cl)cc2c1OCC2)c1cc2sc(C(=O)O)cc2[nH]1` [Compound 13, OC(=O)C1=CC=2NC(=CC2S1)C(=O)NCC=3C=C(Cl)C=C4CCOC43], -16.5%.
Regarding `CC1(C(=O)O)CCN(C(=O)C(O)c2ccc(Cl)c(Br)c2)C1` (centres unmarked) [Compound 14, CC1(CCN(C1)C(=O)C(O)C=2C=CC(Cl)=C(Br)C2)C(=O)O], the inhibition at 10 µM on EP4R [1] is -14.7%.
Same read-out and setting: in the case of `O=C(O)CCC(Cc1ccccc1)NS(=O)(=O)c1csc2ccccc12` (centres unmarked) [Compound 15, OC(=O)CCC(CC=1C=CC=CC1)NS(=O)(=O)C2=CSC=3C=CC=CC23] it was -14.5%.
Take `CN(Cc1nccn1C1CC1)c1ncnc2[nH]c(C(=O)O)cc12` [Compound 16, CN(CC1=NC=CN1C2CC2)C=3N=CN=C4NC(=CC34)C(=O)O]: on EP4R [1], the inhibition at 10 µM was -14.5%.
Same read-out and setting: in the case of `CC(CN(C(=O)c1ccn(-c2ccccc2)n1)C1CC1)C(=O)O` (centres unmarked) [Compound 17, CC(CN(C1CC1)C(=O)C=2C=CN(N2)C=3C=CC=CC3)C(=O)O] it was -14%; in that of `O=C(O)CC[C@H]1C[C@@H](NC(=O)C(O)c2ccc(Cl)cc2Cl)C1` (some centres unmarked) [Compound 18, OC(C(=O)N[C@H]1C[C@@H](CCC(=O)O)C1)C=2C=CC(Cl)=CC2Cl], -13.7%.
Still for that read-out and setting: in the case of `CC(CN(C(=O)CCc1ccc2ccccc2c1)C1CC1)C(=O)O` (centres unmarked) [Compound 19, CC(CN(C1CC1)C(=O)CCC=2C=CC=3C=CC=CC3C2)C(=O)O] it was -13.2%; in that of `c1ccc(-c2nc(SCc3nnn[nH]3)oc2-c2ccccc2)cc1` [Compound 20, C(SC1=NC(=C(O1)C=2C=CC=CC2)C=3C=CC=CC3)C4=NN=NN4], -12.7%.
The same measure, in the same setting: the figure for `O=C(O)CCN(Cc1ccccc1)C(=O)CC1(C(F)(F)F)CC1` [Compound 21, OC(=O)CCN(CC=1C=CC=CC1)C(=O)CC2(CC2)C(F)(F)F] is -12.3%.
Consider `COc1ccc(-c2cc(CS(=O)(=O)c3nnc(C)[nH]3)on2)cc1` [Compound 22, COC=1C=CC(=CC1)C=2C=C(CS(=O)(=O)C3=NN=C(C)N3)ON2], for which the inhibition at 10 µM at EP4R [1] is -11.6%.
Same read-out and setting: the figure for `CN(c1cccc(CC(=O)O)c1)S(=O)(=O)CC1Cc2ccccc2C1` [Compound 23, CN(C=1C=CC=C(CC(=O)O)C1)S(=O)(=O)CC2CC=3C=CC=CC3C2] is -11.1%.
By IC50 is commonly meant the concentration at which inhibition is half-maximal. Low readings indicate inhibition by little substance, high ones a need for much substance. As for `Cc1sc(C(=O)NC2CCCC(C(=O)O)CC2)cc1-c1ccc(F)cc1` (centres unmarked) [Compound 108, CC=1SC(=CC1C=2C=CC(F)=CC2)C(=O)NC3CCCC(CC3)C(=O)O], the IC50 is 501000 nM on EP4R [2] (setting [3]) and over 10000 nM against EP4R [2] (setting [4]).
For `O=C(NC1CC2(CCC(C(=O)O)CC2)C1)c1csc(C2CCCCC2)c1` (centres unmarked) [Compound 109, OC(=O)C1CCC2(CC(C2)NC(=O)C3=CSC(=C3)C4CCCCC4)CC1] the same measures were 10200 nM and over 10000 nM.
As to `Cc1cc(C(=O)N[C@@H]2CC[C@@H](C(=O)O)CCC2(F)F)c(C)n1-c1ccccc1F` [Compound 113, CC1=CC(C(=O)N[C@@H]2CC[C@H](CCC2(F)F)C(=O)O)=C(C)N1C=3C=CC=CC3F], the IC50 was 11000 nM against EP4R [2] (PRESTO-Tango -logIC50) and over 10000 nM against EP4R [2] (PRESTO-Tango IC50 (nM)).
Take `O=C(NC1CCCC(C(=O)O)CC1)c1nn(-c2ccc(F)cc2)c2c1CCC2` (centres unmarked) [Compound 116, OC(=O)C1CCCC(CC1)NC(=O)C2=NN(C=3CCCC23)C=4C=CC(F)=CC4]: the IC50 was 17400 nM against EP4R [2] (setting [3]) and over 10000 nM on EP4R [2] (setting [4]).
For `COc1cccc(-n2c(C)cc(C(=O)NC3CCCC(C(=O)O)CC3)c2C)c1` (centres unmarked) [Compound 117, COC=1C=CC=C(C1)N2C(C)=CC(C(=O)NC3CCCC(CC3)C(=O)O)=C2C] the same measures were 22900 nM and over 10000 nM.
By Ki is commonly meant the dissociation constant of the complex between target and ligand, obtained from inhibition or displacement. Regarding `O=C(N[C@@H]1CC[C@@H](C(=O)O)CCC1(F)F)c1nn(-c2ccccc2F)c2c1CCC2` [Compound 118, OC(=O)[C@@H]1CC[C@@H](NC(=O)C2=NN(C=3CCCC23)C=4C=CC=CC4F)C(F)(F)CC1], at EP4R [2] (setting [4]), the half-inhibitory concentration (IC50) is 3790 nM. At EP4R [2], this compound came in with a Ki of 757 nM.
Take `Cc1cc(C(=O)NC2CCCC(C(=O)O)CC2)c(C)n1-c1ccc(F)cc1` (centres unmarked) [Compound 119, CC1=CC(C(=O)NC2CCCC(CC2)C(=O)O)=C(C)N1C=3C=CC(F)=CC3]: the IC50 against EP4R [2] (setting [3]) was 25900 nM; on EP4R [2] (setting [4]), over 10000 nM.
`O=C(N[C@@H]1CC[C@@H](C(=O)O)CCC1(F)F)c1nn(-c2cccc(F)c2)c2c1CCC2` [Compound 121, OC(=O)[C@@H]1CC[C@@H](NC(=O)C2=NN(C=3CCCC23)C=4C=CC=C(F)C4)C(F)(F)CC1]: the IC50 is 1000 nM on EP4R [2] (setting [3]) and 1010 nM at EP4R [2] (setting [4]). Further, the Ki at EP4R [2] (setting [5]) was 202 nM.
`Cc1cc(C(=O)NC2CCCC(C(=O)O)CC2)c(C)n1-c1ccc(C(C)C)cc1` (centres unmarked) [Compound 122, CC(C)C=1C=CC(=CC1)N2C(C)=CC(C(=O)NC3CCCC(CC3)C(=O)O)=C2C] yielded a half-maximal inhibitory concentration (IC50) against EP4R [2] (setting [4]) of 1150 nM. Moreover, the inhibition constant (Ki) on EP4R [2] (setting [5]) is 229 nM.
On to `O=C(NC1CCCC(C(=O)O)CC1)c1nn(-c2cccc(F)c2)c2c1CCC2` (centres unmarked) [Compound 123, OC(=O)C1CCCC(CC1)NC(=O)C2=NN(C=3CCCC23)C=4C=CC=C(F)C4], for which the half-inhibitory concentration (IC50) against EP4R [2] (PRESTO-Tango IC50 (nM)) is 1470 nM. In addition, on EP4R [2] (setting [5]), the Ki was 293 nM.
Regarding `COc1ccc(-n2c(C)cc(C(=O)NC3CCCC(C(=O)O)CC3)c2C)cc1` (centres unmarked) [Compound 124, COC=1C=CC(=CC1)N2C(C)=CC(C(=O)NC3CCCC(CC3)C(=O)O)=C2C], the IC50 was 53700 nM against EP4R [2] (setting [3]) and over 10000 nM at EP4R [2] (setting [4]).
Take `O=C(N[C@@H]1CC[C@@H](C(=O)O)CCC1(F)F)c1nn(-c2ccccc2)c2c1CCC2` [Compound 125, OC(=O)[C@@H]1CC[C@@H](NC(=O)C2=NN(C=3CCCC23)C=4C=CC=CC4)C(F)(F)CC1]: half-maximal inhibition at EP4R [2] (setting [4]) (IC50) was put at 1640 nM. Moreover, the Ki on EP4R [2] (setting [5]) was 328 nM.
Turning to `Cc1cc(C(=O)NC2CCCC(C(=O)O)CC2)c(C)n1-c1cccc(F)c1` (centres unmarked) [Compound 126, CC1=CC(C(=O)NC2CCCC(CC2)C(=O)O)=C(C)N1C=3C=CC=C(F)C3], on EP4R [2], the “PRESTO-Tango -logIC50” value is recorded as “unstable”. The compound also registered an IC50 against EP4R [2] (PRESTO-Tango IC50 (nM)) of over 10000 nM.
With `O=C(N[C@@H]1CC[C@@H](C(=O)O)CCC1(F)F)c1nn(-c2ccc(F)cc2)c2c1CCC2` [Compound 127, OC(=O)[C@@H]1CC[C@@H](NC(=O)C2=NN(C=3CCCC23)C=4C=CC(F)=CC4)C(F)(F)CC1], at EP4R [2] (setting [4]), the IC50 stood at 2170 nM. The Ki at EP4R [2] (setting [5]) is 434 nM.
In the case of `Cc1cc(C(=O)N[C@@H]2CC[C@@H](C(=O)O)CCC2(F)F)c(C)n1-c1cccc(F)c1` [Compound 128, CC1=CC(C(=O)N[C@@H]2CC[C@H](CCC2(F)F)C(=O)O)=C(C)N1C=3C=CC=C(F)C3], the IC50 against EP4R [2] (setting [3]) was 18200 nM; against EP4R [2] (setting [4]) it was over 10000 nM.
The corresponding values for `Cc1cc(C(=O)NC2CCCC(C(=O)O)CC2)c(C)n1-c1ccccc1F` (centres unmarked) [Compound 129, CC1=CC(C(=O)NC2CCCC(CC2)C(=O)O)=C(C)N1C=3C=CC=CC3F] are 479000 nM and over 10000 nM.
For `CN(C(=O)c1nn(-c2ccccc2)c2c1CCC2)C1CCCC(C(=O)O)CC1` (centres unmarked) [Compound 131, CN(C1CCCC(CC1)C(=O)O)C(=O)C2=NN(C=3CCCC23)C=4C=CC=CC4], inhibition against EP4R [2] (setting [4]) was half-maximal at 1880 nM (IC50). Besides, the Ki on EP4R [2] was determined as 376 nM.
Regarding `Cc1cc(C(=O)N(C)C2CCCC(C(=O)O)CC2)c(C)n1-c1ccccc1` (centres unmarked) [Compound 132, CN(C1CCCC(CC1)C(=O)O)C(=O)C=2C=C(C)N(C2C)C=3C=CC=CC3], the IC50 at EP4R [2] (setting [3]) was 23400 nM; at EP4R [2] (setting [4]), over 10000 nM.
The compound `O=C(O)C1CCC2(CC1)CC(Nc1ncnc3[nH]c4ncccc4c13)C2` (centres unmarked) [Compound 133, OC(=O)C1CCC2(CC(C2)NC=3N=CN=C4NC=5N=CC=CC5C34)CC1] displayed an IC50 against EP4R [2] (setting [4]) of 1090 nM. In addition, the Ki at EP4R [2] (setting [5]) is 218 nM.
